Data on one compound can be found in article PMC6327044, “A chemical biology screen identifies a vulnerability of neuroendocrine cancer cells to SQLE inhibition” (Nature Communications, 2019).

What all share (experiment): cells
What all share (set-up): species or system panel of 482 human cancer cell lines; ATPLite luminescence growth inhibition after treatment, nine-point dilution curve, 482 cancer cell lines, 384-well
Conditions in all cases: 72 h, recommended growth medium

The test system of one experiment is HCC70_BREAST. The protocol:
(§1) Cells were seeded in recommended growth media in black 384-well tissue culture treated plates at 500 cells per well. Cells were equilibrated in assay plates via centrifugation and placed in incubators for 24 h before treatment. […] Treated assay plates were incubated with compounds for 72 h and subsequently were developed for endpoint analysis using ATPLite. Each compound was assessed using a nine-point dilution curve. Cells were defined as sensitive to a given compound based on GI75 < 2 μM with manual quality control of curve fit. GI75 is defined as a drug concentration that causes a 75% reduction in assay readout relative to dimethyl sulfoxide (DMSO)-treated controls. To identify novel cancer vulnerabilities, we screened a panel of 482 cell lines with a diverse set of metabolic inhibitors. […] Given that SCLC is thought to arise from neuroendocrine cells in the lung[9], we tested the NB-598 sensitivity in a panel of 42 SCLC cell lines. We calculated a quantitative metric of sensitivity for each cell line based on the area under the curve (AUC) of the mu/mu.max curve to more accurately capture the potency and extent of NB-598 effects. […] We categorized the SCLC cell lines as sensitive (5/42), moderate (11/42), and insensitive (26/42) (Fig. 1c and Supplementary Data 2) and focused all subsequent efforts on this indication. […] To further understand the patterns of sensitivity, we conducted RNA sequencing (RNA-Seq; Supplementary Data 3) and proteomic (Supplementary Data 4) characterization of the SCLC panel to identify unbiased expression signatures associated with enhanced NB-598 response (Supplementary Fig. 1 and Supplementary Fig. 2). Given the growing understanding that SCLC tumors can be further subdivided based on the status of lineage-defining transcription factors, ASLC1 and NEUROD1, we specifically investigated NB-598 response as the function of ASCL1 and NEUROD1 expression levels. […] To further dissect the NB-598 response within the ASCL1-high/NEUROD-low subset of 25 cell lines, we identified RNA-Seq and proteomics expression signatures associated with NB

Another experiment concerns HCT8_LARGE_INTESTINE
The protocol: as §1

The test system of another experiment is HEC1A_ENDOMETRIUM
The protocol:
as §1

For experiment [1], the system named is KG1_HAEMATOPOIETIC_AND_LYMPHOID_TISSUE. The protocol: as §1
Experiment [2] concerns KMS20_HAEMATOPOIETIC_AND_LYMPHOID_TISSUE. The protocol:
as §1

The next experiment deals with NCIH1155_LUNG. The method, then:
as §1

In the next experiment the test system is NCIH1581_LUNG. The method, then:
as §1

The subject of a further experiment is NCIH841_LUNG. The method, then: as §1
For the next experiment, the system named is OAW28_OVARY. The protocol: as §1
Another experiment has as its system SKMEL3_SKIN. The protocol: as §1
The test system of the next experiment is SKNDZ_AUTONOMIC_GANGLIA. The method, then:
as §1

In experiment [3] the test system is SNU1066_UPPER_AERODIGESTIVE_TRACT. The protocol:
as §1

The next experiment has as its system SNU601_STOMACH. The protocol:
as §1

In experiment [4] the test system is SUDHL4_HAEMATOPOIETIC_AND_LYMPHOID_TISSUE. The method, then:
as §1

In the next experiment the test system is TT_OESOPHAGUS
The protocol: as §1

Experiment [5] concerns YD10B_UPPER_AERODIGESTIVE_TRACT. The method, then: as §1

For the compound `CCN(C/C=C/C#CC(C)(C)C)Cc1cccc(OCc2cc(-c3ccsc3)cs2)c1` [NB-598], the 50% growth inhibitory concentration (GI50) with HCC70_BREAST was determined as 16.3 µM; with HCT8_LARGE_INTESTINE, 10.7 µM; in the experiment with HEC1A_ENDOMETRIUM, 12.6 µM; in [1] it was 23.9 µM; in experiment [2], 6.54 µM; with NCIH1155_LUNG, 0.00517 µM. Further, the 50% growth inhibitory concentration (GI50) in the experiment with NCIH1581_LUNG amounted to 0.0124 µM; with NCIH841_LUNG it was 13.2 µM; in the experiment on OAW28_OVARY, 65.4 µM; with SKMEL3_SKIN, 0.263 µM; with SKNDZ_AUTONOMIC_GANGLIA, 0.012 µM; in [3], 121 µM. Also, the concentration for 50% growth inhibition (GI50) in the experiment with SNU601_STOMACH was 5.4 µM; in experiment [4] it was 10.6 µM; in the experiment with TT_OESOPHAGUS it was 0.296 µM; in experiment [5], 0.0714 µM.
